The values that follow come from paper PMC11831190 (MedComm, 2025).

Structures are written as SMILES. Where two headings read alike, the source gives them in different places.

The nature of the data set: Pharmacokinetic evaluation of Oraxol in patients with MBC (weeks 1 and 4). The class given is in vivo, human. To be noted: for AUC(0-t) / Cmax / Tmax: human, in vivo, oral; for AUC(0-t): read-out: AUC (0-52) Mean. The protocol: Similarly, patients were readmitted to the clinic the preceding night dosing on week 4, day 1, and remained at the clinic until pharmacokinetic sampling was completed on Day 3 of that week.
Analytical determination of pharmacokinetic parameters was conducted in patients who provided at least one post‐dose blood sample. The study weeks were counted consecutively starting from week 1 for pharmacokinetic sampling. However, for week 4 pharmacokinetic sampling, a delay was permitted at the investigator's discretion to allow the relevant time to recuperate from any intolerable toxicity, if present. In the instance of treatment postponement, pharmacokinetic samples for week 4 were collected immediately after treatment resumed, regardless of whether a dose reduction were applied.
The pharmacokinetic parameters were synthesized utilizing descriptive data analysis, including mean, standard deviation, median, minimum, and maximum values. What is more, summaries of pharmacokinetic parameters included the geometric average and the coefficient of variation. Individual concentration data and corresponding area under the AUC timepoint data were tabulated in both nominal and actual sampling times for all patients. The concentration‐timepoint data (in actual times) were presented graphically for each subject.
The pharmacokinetic parameters were analyzed using logarithmic transformation, followed by statistical evaluation through analysis of variance, considering subject and treatment effects. […] This analysis allowed for the assessment of the pharmacokinetic profile of Oraxol over the course of treatment.

Turning to `COc1cc2c(cc1OC)CN(CCc1ccc(-n3nnc(-c4cc(OC)c(OC)cc4NC(=O)c4cc(=O)c5ccccc5o4)n3)cc1)CC2.CS(=O)(=O)O.O` [HM30181A, HM30181A methanesulfonate monohydrate], the Tmax (0-24) Median turned out to be 5 h (Study day 1) and 4.5 h (Study day 22).
For the molecule `CC(=O)O[C@H]1C(=O)[C@@]2(C)[C@H]([C@H](OC(=O)c3ccccc3)[C@]3(O)C[C@H](OC(=O)[C@H](O)[C@@H](NC(=O)c4ccccc4)c4ccccc4)C(C)=C1C3(C)C)[C@]1(OC(C)=O)CO[C@@H]1C[C@@H]2O` [Paclitaxel], the Tmax (0-24) Median reads like this: (Study day 1) 1 h; (Study day 22) 1 h. Further, the AUC(0-t) reads like this: (Study day 1) 3540 ng·h/mL; (Study day 22) 3520 ng·h/mL. The peak concentration (Cmax) reads like this: (Study day 1, read-out: Cmax (0-24) Mean) 288 ng/mL; (Study day 1, read-out: Cmax (24-48) Mean) 338 ng/mL; (Study day 1, read-out: Cmax (48-52) Mean) 324 ng/mL; (Study day 1, read-out: Cmax Mean) 404 ng/mL; (Study day 22, read-out: Cmax (0-24) Mean) 329 ng/mL; (Study day 22, read-out: Cmax (24-48) Mean) 289 ng/mL. For the same molecule, the maximum concentration (Cmax) turned out to be 313 ng/mL (Study day 22, read-out: Cmax (48-52) Mean) and 398 ng/mL (Study day 22, read-out: Cmax Mean). Moreover, the Tmax runs as follows: (Study day 1, read-out: Tmax (24-48) Median) 25.5 h; (Study day 1, read-out: Tmax (48-52) Median) 49.3 h; (Study day 22, read-out: Tmax (24-48) Median) 25 h; (Study day 22, read-out: Tmax (48-52) Median) 49 h.
